Results as given in article PMC11605156, “Triterpenoids from Ganoderma lucidum inhibit cytochrome P450 enzymes interfering with the metabolic process of specific clinical drugs” (Frontiers in Pharmacology, 2024).

Key:
[1] = molecular target: CYP2C9 (Homo sapiens, UniProt P11712); assay: CYP2C9 inhibition, probe/drug metabolism in human liver microsomes
Method: (§1) The total volume of the in vitro metabolic incubation system is 200 μL. The probe substrate concentration in the system is shown in Supplementary Table S1. […] The reaction sample was preheated in a constant temperature mixer at 37°C. Then NADP^+ was added to the system to initiate the reaction. The reaction time is 30 min, and 100 μL acetonitrile will be added on time to quickly terminate the reaction, followed by centrifugation at 4°C and 20,000 g for 20 min. The supernatant was analyzed using liquid chromatography tandem mass spectrometry (LC-MS/MS), and the activity of CYP enzymes was evaluated by the generation of probe metabolites. The mass spectrometry information of probe substrates is shown in Supplementary Table S3.
(§2) The isolated triterpenoids (1–66) were used to establish a compounds library. The inhibitory effects of 66 triterpenoids from G. lucidum on seven subtypes of CYP enzymes (CYP1A2, 2A6, 2D6, 2B6, 2C9, 2C19, 3A4) were evaluated followed the above-mentioned experimental procedures.
(§3) For 16 clinical drugs metabolized by CYP enzymes, potential DDI studies were conducted on triterpenoids (6, 25) of G. lucidum, and IC50 values were measured.
(§4) Clinical drugs: Phenacetin, melatonin, clozapine and riluzole are metabolized by CYP1A2. Bupropion, artemisinin, efavirenz and sertraline are metabolized by CYP2B6. Diclofenac, valsartan, glimepiride and glibenclamide are metabolized by CYP2C9. Midazolam, imatinib, simvastatin and diltiazem are metabolized by CYP3A4.
(§5) Table S1. The information of probes for CYPs activity assay
(§6) Table S2. Information of clinical drugs

[2] = molecular target: T1, CYP1A2 (Homo sapiens, UniProt P05177); assay: CYP1A2 inhibition, probe/drug metabolism in human liver microsomes (LC-MS/MS); details: human, human liver microsomes, pH 7.4, probe phenacetin 40 μM, Residual activity (%) CYP1A2, HLM 0.5 mg/mL, phenacetin 40 μM, 30 min
T1 sequence (P05177 1-516): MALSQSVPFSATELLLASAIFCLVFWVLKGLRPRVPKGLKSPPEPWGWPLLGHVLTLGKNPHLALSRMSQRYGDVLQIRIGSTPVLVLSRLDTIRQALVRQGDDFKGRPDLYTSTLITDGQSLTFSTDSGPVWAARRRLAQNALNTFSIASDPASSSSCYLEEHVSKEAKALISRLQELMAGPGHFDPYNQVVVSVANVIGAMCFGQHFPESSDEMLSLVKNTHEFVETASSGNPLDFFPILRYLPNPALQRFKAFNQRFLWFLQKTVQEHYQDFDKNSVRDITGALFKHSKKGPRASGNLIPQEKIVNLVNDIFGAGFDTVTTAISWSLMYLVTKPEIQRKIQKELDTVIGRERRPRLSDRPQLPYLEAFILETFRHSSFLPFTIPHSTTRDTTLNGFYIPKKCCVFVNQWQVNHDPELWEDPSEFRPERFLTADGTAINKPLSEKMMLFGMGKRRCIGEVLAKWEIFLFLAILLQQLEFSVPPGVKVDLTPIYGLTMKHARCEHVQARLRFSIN
Method: as §1, §2, §3, §4, §5, §6

[3] = molecular target: CYP2D6 (Homo sapiens, UniProt P10635); assay: CYP2D6 inhibition, dextromethorphan probe in human liver microsomes; details: human, human liver microsomes, pH 7.4, probe dextromethorphan 5 μM, Residual activity (%) CYP2D6, HLM 0.5 mg/mL
Method: as §1, §2, §5

CYP2C9, sequence (P11712 whole entry): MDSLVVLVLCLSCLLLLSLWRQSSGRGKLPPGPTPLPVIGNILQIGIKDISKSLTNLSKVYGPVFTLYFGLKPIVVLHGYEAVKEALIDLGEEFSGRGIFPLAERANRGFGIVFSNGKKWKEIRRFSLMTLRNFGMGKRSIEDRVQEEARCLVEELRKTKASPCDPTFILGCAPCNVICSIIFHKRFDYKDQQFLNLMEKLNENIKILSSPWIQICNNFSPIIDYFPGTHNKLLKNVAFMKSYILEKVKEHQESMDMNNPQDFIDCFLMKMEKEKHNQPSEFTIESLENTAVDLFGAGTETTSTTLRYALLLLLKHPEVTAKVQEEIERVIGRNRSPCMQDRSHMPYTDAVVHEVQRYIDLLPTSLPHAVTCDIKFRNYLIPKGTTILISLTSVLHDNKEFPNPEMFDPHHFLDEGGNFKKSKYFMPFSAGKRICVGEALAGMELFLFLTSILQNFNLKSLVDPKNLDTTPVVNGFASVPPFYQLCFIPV
CYP2D6, sequence (P10635 whole entry): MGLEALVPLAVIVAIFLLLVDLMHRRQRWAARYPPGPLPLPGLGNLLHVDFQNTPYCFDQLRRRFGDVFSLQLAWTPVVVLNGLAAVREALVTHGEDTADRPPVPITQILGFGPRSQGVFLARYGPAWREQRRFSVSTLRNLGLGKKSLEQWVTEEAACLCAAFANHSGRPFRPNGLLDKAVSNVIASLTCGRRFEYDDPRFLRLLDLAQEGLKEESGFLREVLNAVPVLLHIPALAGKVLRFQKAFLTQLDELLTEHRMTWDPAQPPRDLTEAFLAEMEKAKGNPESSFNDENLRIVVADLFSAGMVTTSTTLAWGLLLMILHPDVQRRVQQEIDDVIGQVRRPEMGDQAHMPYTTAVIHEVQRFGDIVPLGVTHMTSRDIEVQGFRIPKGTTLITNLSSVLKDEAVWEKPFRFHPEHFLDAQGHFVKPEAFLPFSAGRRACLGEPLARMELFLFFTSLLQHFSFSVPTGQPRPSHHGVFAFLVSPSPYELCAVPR

Work on `CC(CCC(O)C(C)(O)CO)C1CCC2(C)C3=C(C(=O)CC12C)C1(C)CCC(=O)C(C)(C)C1CC3` (stereo not shown) [Compound 25, ganodrol C] yielded an IC50 ([1]; IC50 against metabolism of glibenclamide mediated by CYP2C9, substrate glibenclamide 50 μM, 30 min) of 10.3 ± 0.12 µM, an IC50 ([1]; IC50 against metabolism of glimepiride mediated by CYP2C9, substrate glimepiride 50 μM, 30 min) of 12.3 ± 0.43 µM and an IC50 ([1]; IC50 against metabolism of valsartan mediated by CYP2C9, substrate valsartan 30 μM, 30 min) of 14.3 ± 1.14 µM. The IC50 at 30 min ([1]; human, human liver microsomes, pH 7.4, probe diclofenac 4 μM, IC50 against CYP 2C9, substrate diclofenac 4 μM, HLM) was 11.4 µM, the activity at 30 min ([1]; human, human liver microsomes, pH 7.4, probe diclofenac 4 μM, Residual activity (%) CYP2C9, HLM 0.5 mg/mL, diclofenac 4 μM, 30 min) was 32 ± 2.74% and the activity at 30 min [2] was 104 ± 18.9%. It also gave an activity at 30 min [3] of 68.22 ± 0.44%.
